Experimental data taken from paper PMC5126721 (ACS Central Science, 2016).
pKd: −log10 of the molar value.

Target: lysozyme (Gallus gallus, UniProt P00698)
Experiment: TIMES
Format: binding

Chain of lysozyme (P00698 19-147): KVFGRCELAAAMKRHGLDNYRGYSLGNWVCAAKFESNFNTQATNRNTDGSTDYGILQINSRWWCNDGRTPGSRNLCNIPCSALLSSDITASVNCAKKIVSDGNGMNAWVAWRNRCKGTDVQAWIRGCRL

CC(=O)N[C@H]1[C@H](O[C@H]2[C@H](O)[C@@H](NC(C)=O)C(O)O[C@@H]2CO)O[C@H](CO)[C@@H](O[C@@H]2O[C@H](CO)[C@@H](O)[C@H](O)[C@H]2NC(C)=O)[C@@H]1O (stereo partly shown) [NAG3, N,N′,N″-triacetylchitotriose]
pKd: 4.40
